The record followed here is patent US11000033B2, “Ketone or oxime compound, and herbicide” (NISSAN CHEMICAL CORPORATION, priority 2014, dated 2021).

Common to all, as to format: in vivo
The test system of one data set is Leptochloa chinensis. Put plainly: Test Example 3: herbicidal effect by foliage application, Wagner pot (symbol D). The note with it: application herbicide amount 320 g/ha. Here is the method:
(§1) Herbicidal Effect Test by Foliage Application
(§2) After alluvial soil was placed into 1/10000 are of Wagner pot, water was poured and mixed to form a submerged condition having a water depth of 0.1 cm to 0.5 cm. Seeds of Echinochloa crus-galli var. crus-galli, Leptochloa chinensis, Cyperus difformis, and rice were sowed and the pot was placed in the greenhouse of 25° C. to 30° C. to grow the plants. After the plants were grown for 14 days, the emulsion agent of the compound of the present invention prepared in accordance with Formulation Example 2 was diluted with water so as to be a predetermined herbicide amount and the diluted emulsion agent was uniformly applied to a foliage part with a small-size spray. 3 weeks later from the herbicide application, the effect to each plant was investigated in accordance with the criteria of Test Example 1.

The subject of the next data set is transplanted rice plant. Description: Test Example 1: effect on crop, application before weed generation in submerged conditions (symbol a). As to conditions: application herbicide amount 320 g/ha. Here is the method:
(§3) Herbicidal Activity Test by Application Before Weed Generation in Submerged Conditions
After alluvial soil was placed into 1/10000 are of Wagner pot, water was poured and mixed to form a submerged condition having a water depth of 4 cm. Seeds of Echinochloa oryzacola Vasing., Scirpus juncoides, and Monochoria vaginalis were sowed in a mixed manner in the above pot and thereafter 2.5 leaf stage rice plant seedlings were transplanted thereto. […] The pot was placed in a greenhouse of 25° C. to 30° C. to grow plant. 3 weeks later from the herbicide application, the effect to each plant was investigated in accordance with the following criteria.
(§4) 5 Herbicidal ratio of 90% or more (almost completely withered)
(§5) 4 Herbicidal ratio of 70% or higher and lower than 90%
(§6) 3 Herbicidal ratio of 40% or higher and lower than 70%
(§7) 2 Herbicidal ratio of 20% or higher and lower than 40%
(§8) 1 Herbicidal ratio of 5% or higher and lower than 20%
(§9) 0 Herbicidal ratio of 5% or lower (almost no effect)

For the next data set, the system named is Cyperus difformis. Description: Test Example 3: herbicidal effect by foliage application, Wagner pot (symbol E). The note with it: application herbicide amount 320 g/ha. Here is the method:
as §1, §2

Data set [1] concerns Echinochloa oryzacola Vasing. Description: Test Example 1: herbicidal activity, application before weed generation in submerged conditions (symbol A). As to conditions: application herbicide amount 320 g/ha.
Description: as §3
(§10) After alluvial soil was placed into 1/10000 are of Wagner pot, water was poured and mixed to form a submerged condition having a water depth of 4 cm. Seeds of Echinochloa oryzacola Vasing., Scirpus juncoides, and Monochoria vaginalis were sowed in a mixed manner in the above pot and thereafter 2.5 leaf stage rice plant seedlings were transplanted thereto. On the day of sowing seeds, the emulsion agent of the compound of the present invention prepared in accordance with Formulation Example 2 was diluted with water so as to be a predetermined herbicide amount and the diluted emulsion agent was applied to the surface of the water. The pot was placed in a greenhouse of 25° C. to 30° C. to grow plant. 3 weeks later from the herbicide application, the effect to each plant was investigated in accordance with the following criteria.
as §4, §5, §6, §7, §8, §9

The next data set concerns Monochoria vaginalis. Description: Test Example 2: herbicidal activity, application during weed generation in submerged conditions (symbol C). As to conditions: Table 23; application herbicide amount 320 g/ha; grade 0-5 by criteria of Test Example 1. The procedure:
(§11) Herbicidal Activity Test by Application During Weed Generation in Submerged Conditions
as §10, with “the pot was placed in the greenhouse of 25° C. to 30° C. to grow the plants. When Echinochloa oryzacola Vasing., Scirpus juncoides, and Monochoria vaginalis were grown to one” for “thereafter 2.5”, “to two leaf stage,” for “rice plant seedlings were transplanted thereto. On the day of sowing seeds,”, “water.” for “water. The pot was placed in a greenhouse of 25° C. to 30° C. to grow plant.”, “criteria of Test Example 1.” for “following criteria.”

Data set [2] relates to Scirpus juncoides. Description: Test Example 2: herbicidal activity, application during weed generation in submerged conditions (symbol B). As to conditions: Table 23; application herbicide amount 320 g/ha; grade 0-5 by criteria of Test Example 1. The procedure:
as §11
as §10, with “the pot was placed in the greenhouse of 25° C. to 30° C. to grow the plants. When Echinochloa oryzacola Vasing., Scirpus juncoides, and Monochoria vaginalis were grown to one” for “thereafter 2.5”, “to two leaf stage,” for “rice plant seedlings were transplanted thereto. On the day of sowing seeds,”, “water.” for “water. The pot was placed in a greenhouse of 25° C. to 30° C. to grow plant.”, “criteria of Test Example 1.” for “following criteria.”

For data set [3], the system named is Echinochloa crus-galli var. crus-galli. Description: Test Example 3: herbicidal effect by foliage application, Wagner pot (symbol H). As to conditions: application herbicide amount 320 g/ha. Here is the method: as §1, §2
The test system of data set [4] is Echinochloa oryzacola Vasing. Put plainly: Test Example 2: herbicidal activity, application during weed generation in submerged conditions (symbol A). As to conditions: Table 23; application herbicide amount 320 g/ha; grade 0-5 by criteria of Test Example 1. Here is the method: as §11
as §10, with “the pot was placed in the greenhouse of 25° C. to 30° C. to grow the plants. When Echinochloa oryzacola Vasing., Scirpus juncoides, and Monochoria vaginalis were grown to one” for “thereafter 2.5”, “to two leaf stage,” for “rice plant seedlings were transplanted thereto. On the day of sowing seeds,”, “water.” for “water. The pot was placed in a greenhouse of 25° C. to 30° C. to grow plant.”, “criteria of Test Example 1.” for “following criteria.”

Data set [5] relates to directly sowed rice plant. Put plainly: Test Example 3: effect on crop by foliage application, Wagner pot (symbol b). As to conditions: application herbicide amount 320 g/ha. Here is the method: as §1
After alluvial soil was placed into 1/10000 are of Wagner pot, water was poured and mixed to form a submerged condition having a water depth of 0.1 cm to 0.5 cm. Seeds of Echinochloa crus-galli var. crus-galli, Leptochloa chinensis, Cyperus difformis, and rice were sowed and the pot was placed in the greenhouse of 25° C. to 30° C. to grow the plants.

In data set [6] the test system is Scirpus juncoides. Put plainly: Test Example 1: herbicidal activity, application before weed generation in submerged conditions (symbol B). The note with it: application herbicide amount 320 g/ha.
Description: as §3, §10, §4, §5, §6, §7, §8, §9

Each structure is given as a SMILES string.

Regarding `CON=C(C)CC1CC(O)=C(c2c(C)cc(SC)cc2C)C1=O` (stereo not shown) [6-024], the “herbicidal effect on D (Leptochloa chinensis), grade 0-5” value with Leptochloa chinensis was 2 (Herbicidal ratio of 20% or higher and lower than 40%). Besides, the “Effect grade on crop, a: transplanted rice plant” value in the data set with transplanted rice plant was 3 (Herbicidal ratio of 40% or higher and lower than 70%). In the data set on Cyperus difformis, the “herbicidal effect on E, grade 0-5” value was 3 (Herbicidal ratio of 40% or higher and lower than 70%). Further, the “Herbicidal effect grade, A: Echinochloa oryzacola Vasing.” value in [1] was 3 (Herbicidal ratio of 40% or higher and lower than 70%); in data set [4], 1 (Herbicidal ratio of 5% or higher and lower than 20%). Moreover, the “Herbicidal effect grade, C: Monochoria vaginalis” value in the data set with Monochoria vaginalis is given as 0 (Herbicidal ratio of 5% or lower (almost no effect)). Further, the “Herbicidal effect grade, B: Scirpus juncoides” value was 0 (Herbicidal ratio of 5% or lower (almost no effect)) in the data set with Scirpus juncoides [2]; 2 (Herbicidal ratio of 20% or higher and lower than 40%) with Scirpus juncoides [6]. Further, in [3], the “herbicidal effect on H (Echinochloa crus-galli var. crus-galli), grade 0-5” value was 3 (Herbicidal ratio of 40% or higher and lower than 70%). Also, the “effect on crop b (directly sowed rice plant), grade 0-5” value in [5] is 3 (Herbicidal ratio of 40% or higher and lower than 70%).
